Test results reported in ChEMBL document CHEMBL1201862, “PubChem BioAssay data set” (2004).
Activity calls are given as the source filed them.

What was measured:
Estrogen receptor = biological target: T1, Estrogen receptor (Homo sapiens, UniProt P03372); assay: potentiators of ERα–SRC-1 coactivator binding, dose response, biochemical, TR-FRET, ERα LBD (AID 737)
T1 sequence (P03372 whole entry): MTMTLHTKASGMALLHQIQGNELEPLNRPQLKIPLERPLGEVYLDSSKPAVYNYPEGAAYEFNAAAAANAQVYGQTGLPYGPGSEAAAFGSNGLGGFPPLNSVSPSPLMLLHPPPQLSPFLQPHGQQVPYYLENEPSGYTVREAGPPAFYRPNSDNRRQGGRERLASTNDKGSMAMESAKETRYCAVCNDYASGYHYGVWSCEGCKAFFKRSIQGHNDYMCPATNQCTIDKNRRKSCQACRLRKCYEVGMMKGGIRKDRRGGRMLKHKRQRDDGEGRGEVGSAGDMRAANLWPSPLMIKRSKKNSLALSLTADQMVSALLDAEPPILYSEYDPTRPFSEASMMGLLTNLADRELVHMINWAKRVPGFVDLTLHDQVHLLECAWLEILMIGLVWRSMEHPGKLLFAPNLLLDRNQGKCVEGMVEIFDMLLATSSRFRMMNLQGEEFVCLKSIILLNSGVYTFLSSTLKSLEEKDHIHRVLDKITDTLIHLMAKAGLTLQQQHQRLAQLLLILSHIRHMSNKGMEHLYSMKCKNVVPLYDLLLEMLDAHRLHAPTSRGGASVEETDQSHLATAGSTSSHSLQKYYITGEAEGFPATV

NADPH oxidase 1 [1] = biological target: T2, NADPH oxidase 1 (Homo sapiens, UniProt Q9Y5S8); assay: Late-stage luminescence-based cell-based dose response assay to identify inhibitors of NADPH oxidase 1 (NOX1): Synthesized analogs.; type: functional
T2 sequence (Q9Y5S8 whole entry): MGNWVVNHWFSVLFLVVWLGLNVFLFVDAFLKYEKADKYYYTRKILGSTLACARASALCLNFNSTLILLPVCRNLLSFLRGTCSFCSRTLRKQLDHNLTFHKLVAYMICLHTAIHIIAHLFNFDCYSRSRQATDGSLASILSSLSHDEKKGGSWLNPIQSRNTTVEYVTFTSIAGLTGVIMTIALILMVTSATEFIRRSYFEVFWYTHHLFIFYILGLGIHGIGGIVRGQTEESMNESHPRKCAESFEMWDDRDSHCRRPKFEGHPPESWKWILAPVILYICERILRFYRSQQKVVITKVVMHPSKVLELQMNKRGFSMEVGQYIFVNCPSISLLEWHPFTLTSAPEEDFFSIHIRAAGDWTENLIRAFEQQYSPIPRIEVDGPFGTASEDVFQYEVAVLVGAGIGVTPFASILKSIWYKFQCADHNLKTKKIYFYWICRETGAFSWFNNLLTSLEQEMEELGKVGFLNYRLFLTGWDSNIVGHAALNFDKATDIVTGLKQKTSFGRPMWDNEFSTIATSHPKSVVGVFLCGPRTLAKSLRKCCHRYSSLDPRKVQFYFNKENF

[2] = biological target: T3, Short transient receptor potential channel 4 (Mus musculus, UniProt Q9QUQ5); assay: mouse TRPC4 channel inhibitors, dose response, cell-based, HEK293 TRPC4/mu-opioid, Fluo-4 calcium (AID 434942); type: functional;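 also: potency of inhibitors blocking the TRPC4 calcium response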
T3 sequence (Q9QUQ5 whole entry): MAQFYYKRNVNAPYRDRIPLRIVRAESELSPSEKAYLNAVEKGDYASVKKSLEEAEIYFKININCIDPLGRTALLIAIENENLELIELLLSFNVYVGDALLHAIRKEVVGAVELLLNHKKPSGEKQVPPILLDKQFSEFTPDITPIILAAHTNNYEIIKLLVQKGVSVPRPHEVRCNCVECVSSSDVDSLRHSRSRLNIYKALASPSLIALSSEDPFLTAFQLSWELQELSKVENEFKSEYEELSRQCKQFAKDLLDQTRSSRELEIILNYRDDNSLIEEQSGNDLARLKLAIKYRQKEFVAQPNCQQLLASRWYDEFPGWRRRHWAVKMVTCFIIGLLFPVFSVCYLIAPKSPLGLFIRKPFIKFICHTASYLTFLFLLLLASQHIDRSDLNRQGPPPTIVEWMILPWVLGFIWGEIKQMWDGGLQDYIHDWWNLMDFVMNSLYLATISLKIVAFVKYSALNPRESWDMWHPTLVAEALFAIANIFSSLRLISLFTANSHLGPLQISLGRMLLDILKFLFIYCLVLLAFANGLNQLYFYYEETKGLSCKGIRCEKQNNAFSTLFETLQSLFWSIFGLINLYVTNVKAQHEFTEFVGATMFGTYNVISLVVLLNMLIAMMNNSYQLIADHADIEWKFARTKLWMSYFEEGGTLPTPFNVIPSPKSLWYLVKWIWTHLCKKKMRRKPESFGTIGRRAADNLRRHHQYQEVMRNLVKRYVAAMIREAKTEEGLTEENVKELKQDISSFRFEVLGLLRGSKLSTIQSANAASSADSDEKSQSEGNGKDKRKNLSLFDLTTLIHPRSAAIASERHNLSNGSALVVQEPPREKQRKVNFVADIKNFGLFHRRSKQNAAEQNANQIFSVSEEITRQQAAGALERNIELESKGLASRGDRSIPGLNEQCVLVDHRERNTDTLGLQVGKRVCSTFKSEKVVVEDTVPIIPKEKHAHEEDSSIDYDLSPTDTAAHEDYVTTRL

[3] = biological target: T4, Heat shock factor protein 1 (Mus musculus, UniProt P38532); assay: inhibition of MG132-induced HSE-luciferase signal, confirmation, cell-based, NIH3T3, luminescence, dose retest (AID 2382); type: functional;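 also: NIH3T3 fibroblasts with HSF1-driven luciferase reporter stressed by proteasome inhibitor MG132; luminescence from HSF1-driven luciferase expression after 8 hours of MG132 stress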
T4 sequence (P38532 whole entry): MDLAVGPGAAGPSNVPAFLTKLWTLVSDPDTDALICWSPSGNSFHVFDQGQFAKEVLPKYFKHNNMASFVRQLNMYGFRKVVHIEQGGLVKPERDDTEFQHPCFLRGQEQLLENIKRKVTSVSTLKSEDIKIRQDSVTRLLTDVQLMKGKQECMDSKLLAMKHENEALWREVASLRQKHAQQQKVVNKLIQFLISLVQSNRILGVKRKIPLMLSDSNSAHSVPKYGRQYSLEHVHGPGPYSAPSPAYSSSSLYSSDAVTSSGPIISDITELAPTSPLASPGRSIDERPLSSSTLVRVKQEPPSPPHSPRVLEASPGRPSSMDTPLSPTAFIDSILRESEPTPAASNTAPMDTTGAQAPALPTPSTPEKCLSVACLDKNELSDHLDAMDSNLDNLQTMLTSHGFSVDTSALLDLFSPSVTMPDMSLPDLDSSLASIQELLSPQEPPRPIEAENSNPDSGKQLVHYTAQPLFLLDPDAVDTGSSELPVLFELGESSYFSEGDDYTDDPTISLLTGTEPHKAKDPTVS

NADPH oxidase 1 [4] = biological target: T2, NADPH oxidase 1; assay: Luminescence-based cell-based dose response assay to identify inhibitors of NADPH oxidase 1 (NOX1).; type: functional
HeLa = assay: Cytotoxicity counterscreen assay for transcriptional activators of heat shock protein 70 (Hsp70). [Related pubchem assays: 1203, 1252 ]; type: functional; details: Homo sapiens;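 also: cells exposed to compound for 16 hours before readout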
Jurkat = assay: SAR Analysis of small molecule inhibitors of T-cell specific antigen receptor-induced NF-kB activation in a Jurkat cell line using a luminescence assay - Set 2. [Related pubchem assays (depositor defined):AID435003, AID435012, AID465]; type: functional, cell-based; details: Homo sapiens
HEK293 [5] = assay: cytotoxicity in HEK293T NF-kB-Luc cells, SAR follow-up, cytotoxicity control for NF-kB activator project, cell-based, resazurin fluorescence (AID 493251); type: functional; details: Homo sapiens
HEK293 [6] = assay: SAR Analysis of small molecule inhibitors of T-cell specific antigen receptor-induced NF-kB activation in a HEK-293T cell line using a luminescence assay - Set 2. [Related pubchem assays (depositor defined):AID435003, AID435012, AID489026]; type: functional, cell-based; details: Homo sapiens
[7] = biological target: T5, Microphthalmia-associated transcription factor (Homo sapiens, UniProt O75030); assay: TRPM1 promoter luciferase signal decrease, dose response, MITF inhibitor project, cell-based, SK-MEL-5, cherry-picked, set 3 (AID 493073); type: functional
T5 sequence (O75030 whole entry): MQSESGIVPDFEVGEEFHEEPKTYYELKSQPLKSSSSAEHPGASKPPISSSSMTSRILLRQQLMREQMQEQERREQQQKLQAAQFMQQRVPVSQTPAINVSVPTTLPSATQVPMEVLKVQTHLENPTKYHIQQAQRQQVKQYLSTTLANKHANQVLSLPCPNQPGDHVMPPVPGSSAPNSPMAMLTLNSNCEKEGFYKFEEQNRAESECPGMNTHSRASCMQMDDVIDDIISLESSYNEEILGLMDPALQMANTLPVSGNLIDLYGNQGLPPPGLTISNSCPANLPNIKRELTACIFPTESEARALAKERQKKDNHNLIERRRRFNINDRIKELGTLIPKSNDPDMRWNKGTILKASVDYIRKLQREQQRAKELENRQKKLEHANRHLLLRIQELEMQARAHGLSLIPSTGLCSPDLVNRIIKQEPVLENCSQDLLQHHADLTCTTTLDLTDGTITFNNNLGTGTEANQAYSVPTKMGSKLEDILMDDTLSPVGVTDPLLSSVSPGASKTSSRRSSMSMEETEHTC

Compound: O=C(c1cc2sccc2n1Cc1ccccc1)N1CCc2ccccc21
- EC50 (Estrogen receptor): 23.4 µM (active)

Compound: CC(=O)c1ccc2c(c1)N(C)c1ccccc1S2
- IC50 (NADPH oxidase 1 [1]): 2.36 µM (active)
- EC50 [2]: 7.5 µM (active)
- EC50 [3]: > 195 µM (not active)
- IC50 (NADPH oxidase 1 [4]): 1 µM (active)

Compound: O=C(Nc1ccc(N2CCCC2)c(Cl)c1)c1ccc([N+](=O)[O-])o1
- CC50 (HeLa): 5.12 µM (active)
- IC50 (Jurkat): 17.8 µM (active)
- IC50 (HEK293 [5]): 42 µM (inactive)
- IC50 (HEK293 [6]): 33.9 µM (inactive)
- AC50 [7]: 11.1 µM (active)
